Results reported in patent publication US20180177899A1, “HYDROPHILIC PARTICLES, METHOD FOR PRODUCING THE SAME, AND CONTRAST AGENT UTILIZING SAME” (Korea Basic Science Institute, priority 2015, published 2018).

Key:
[1] = Optical stability under continuous 785 nm laser irradiation; assay type: physicochemical; conditions: 30 minutes
Method: A slide glass on which the nanoparticle of Example 4 was spin coated thereon was prepared. A region of the slide glass was selected, and was continuously irradiated by 785 nm laser for 30 minutes.
FIGS. 14A to 14D are a single particle fluorescence images showing the optical stability of an up-conversion nanoparticle coated with indocyanine green.

[2] = Surface charge (zeta potential) by particle size surface charge analyzer; assay type: physicochemical; conditions: aqueous phase
Method: The surface charge of the nanoparticle of Example 2 was measured using a particle size surface charge analyzer (Zetasizer Nano-ZS, […]). In addition, the surface charge of a pure indocyanine green solution was measured using the particle size surface charge analyzer.

surface charge [2]: −25.1 mV
Structure (SMILES): CC1(C)C(/C=C/C=C/C=C/C=C2\N(CCCCS(=O)(=O)O)c3ccc4ccccc4c3C2(C)C)=[N+](CCCCS(=O)(=O)[O-])c2ccc3ccccc3c21 [indocyanine green]
fluorescence signal of indocyanine green after laser irradiation (optical stability) [1]: relatively much reduced or disappeared after 30 minutes
